According to PubChem BioAssay (NCI):
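1) Cells in 96-well plates. 2) Compound, 48 h, 5 concentrations. 3) Linear interpolation between surrounding doses. 4) Unreached endpoint = highest concentration. GI50 marks 50% less growth. Definition used: TGI = concentration required for complete inhibition of growth.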

How the values were obtained:
Assay in all cases: NCI tumour cell line growth inhibition, 48 h; in the data active = GI50 below about 0.43 µM; inactive = the rest
HCT-116 colon = system: HCT-116 colon
HOP-92 NSCLC = system: HOP-92 NSCLC
M14 melanoma = system: M14 melanoma
NCI-H460 lung = system: NCI-H460 lung
OVCAR-3 ovarian = system: OVCAR-3 ovarian
SW-620 colon = system: SW-620 colon
TK-10 renal = system: TK-10 renal

O=C(CCc1nnc2s/c(=C\c3ccc4c(c3)OCO4)c(=O)n12)Nc1cc(Cl)ccc1Cl
> 78.8 µM: TGI (HCT-116 colon)
> 60.5 µM: TGI (SW-620 colon)
> 100 µM: TGI (HOP-92 NSCLC) | TGI (M14 melanoma) | TGI (NCI-H460 lung) | TGI (OVCAR-3 ovarian) | TGI (TK-10 renal)

O=C(Nc1ccc(Cl)c(Cl)c1)C(=O)Nn1c(=S)[nH]c2ccccc2c1=O
> 100 µM: TGI (HCT-116 colon) | TGI (HOP-92 NSCLC) | TGI (M14 melanoma) | TGI (NCI-H460 lung) | TGI (SW-620 colon) | TGI (TK-10 renal)

O=C1OC(c2ccccc2)C2CC3CC4(CCC3CN12)OCCO4 (centres undefined)
> 100 µM: TGI (HCT-116 colon) | TGI (HOP-92 NSCLC) | TGI (M14 melanoma) | TGI (NCI-H460 lung) | TGI (OVCAR-3 ovarian) | TGI (SW-620 colon) | TGI (TK-10 renal)

CN(C)c1ccc(/C=C/C(=O)c2ccccc2)cc1Br
43.8 µM: TGI (SW-620 colon)
> 100 µM: TGI (NCI-H460 lung)
27.3 µM: TGI (M14 melanoma)
35.5 µM: TGI (OVCAR-3 ovarian)
74.2 µM: TGI (TK-10 renal)

O=c1oc2c3ccc4ccccc4c3n(CCN3CCOCC3)c2c2ccccc12
> 100 µM: TGI (HCT-116 colon) | TGI (HOP-92 NSCLC) | TGI (M14 melanoma) | TGI (NCI-H460 lung) | TGI (OVCAR-3 ovarian) | TGI (SW-620 colon) | TGI (TK-10 renal)

COCC1C(=O)c2cc3c(cc2C12C=CC1(C=C2)OCCO1)OCO3 (centres undefined)
29.6 µM: TGI (HOP-92 NSCLC)
34.9 µM: TGI (TK-10 renal)
12.6 µM: TGI (M14 melanoma)
31.9 µM: TGI (NCI-H460 lung)
8.76 µM: TGI (SW-620 colon)
26.5 µM: TGI (OVCAR-3 ovarian)
6.77 µM: TGI (HCT-116 colon)

O=c1c2cc(Br)ccc2[nH]c(=S)n1-c1ccc(Br)cc1
75.7 µM: TGI (HOP-92 NSCLC)
> 100 µM: TGI (HCT-116 colon) | TGI (NCI-H460 lung) | TGI (OVCAR-3 ovarian) | TGI (SW-620 colon) | TGI (TK-10 renal)

O=C(CC1(O)C(=O)Nc2c(Cl)cccc21)c1ccccc1 (centres undefined)
> 100 µM: TGI (HOP-92 NSCLC) | TGI (M14 melanoma) | TGI (NCI-H460 lung) | TGI (OVCAR-3 ovarian) | TGI (SW-620 colon) | TGI (TK-10 renal)

COc1ccc(C(=O)C(c2ccc(OC)cc2)C2C(=O)Oc3ccccc32)cc1 (centres undefined)
inactive: GI50 (HCT-116 colon) > 100 µM | GI50 (HOP-92 NSCLC) > 100 µM | GI50 (M14 melanoma) > 100 µM | GI50 (NCI-H460 lung) > 100 µM | GI50 (OVCAR-3 ovarian) > 100 µM | GI50 (SW-620 colon) > 100 µM | GI50 (TK-10 renal) > 100 µM
> 100 µM: TGI (HCT-116 colon) | TGI (HOP-92 NSCLC) | TGI (M14 melanoma) | TGI (NCI-H460 lung) | TGI (OVCAR-3 ovarian) | TGI (SW-620 colon) | TGI (TK-10 renal)

O=c1cc2n(c(=O)[nH]1)C1OC(C(O)C1O)[C@H]2CCO (some centres undefined)
> 100 µM: TGI (HOP-92 NSCLC) | TGI (NCI-H460 lung) | TGI (SW-620 colon) | TGI (TK-10 renal)

COc1ccc2nc3cc(Cl)ccc3c(NCCC(=O)OCC(O)C(O)C(O[C@H](C)C(=O)NC(C)C(=O)NC(CCC(N)=O)C(=O)OCc3ccccc3)C(C=O)NC(C)=O)c2c1 (some centres undefined)
46.2 µM: TGI (TK-10 renal)
34.7 µM: TGI (OVCAR-3 ovarian)
35.5 µM: TGI (M14 melanoma)
30.9 µM: TGI (SW-620 colon)
31.9 µM: TGI (HCT-116 colon) | TGI (HOP-92 NSCLC)
30.4 µM: TGI (NCI-H460 lung)

C[C@]12CCC3[C@@H](C[C@H]4OC(=O)[C@@]35CCC(=O)C=C45)C1CCC2=O (some centres undefined)
> 100 µM: TGI (HOP-92 NSCLC) | TGI (M14 melanoma) | TGI (NCI-H460 lung) | TGI (OVCAR-3 ovarian) | TGI (SW-620 colon) | TGI (TK-10 renal)

[N-]=[N+]=Nc1ccccc1-[n+]1noc([O-])c1Br
> 100 µM: TGI (HCT-116 colon) | TGI (HOP-92 NSCLC) | TGI (M14 melanoma) | TGI (NCI-H460 lung) | TGI (OVCAR-3 ovarian) | TGI (SW-620 colon) | TGI (TK-10 renal)

Cc1cc2cc(Cl)ccc2nc1C(=O)c1ccccc1
> 100 µM: TGI (HCT-116 colon) | TGI (M14 melanoma) | TGI (OVCAR-3 ovarian) | TGI (SW-620 colon) | TGI (TK-10 renal)

Nc1nc(=O)n(C2CC(O)C(O)C(CO)O2)cc1F (centres undefined)
> 100 µM: TGI (HCT-116 colon) | TGI (M14 melanoma) | TGI (NCI-H460 lung) | TGI (OVCAR-3 ovarian) | TGI (SW-620 colon) | TGI (TK-10 renal)

COC(=O)CSc1ccccc1
99.1 µM: TGI (HOP-92 NSCLC)
> 100 µM: TGI (HCT-116 colon) | TGI (M14 melanoma) | TGI (NCI-H460 lung) | TGI (OVCAR-3 ovarian) | TGI (SW-620 colon) | TGI (TK-10 renal)

COC(=O)CCC(=O)CC(=O)C(=O)Nc1ccc(F)cc1
> 100 µM: TGI (HCT-116 colon) | TGI (HOP-92 NSCLC) | TGI (M14 melanoma) | TGI (NCI-H460 lung) | TGI (OVCAR-3 ovarian) | TGI (SW-620 colon) | TGI (TK-10 renal)

N#Cc1ccc(/C=N\N2C(=O)c3ccccc3C2=O)cc1
> 100 µM: TGI (HCT-116 colon) | TGI (HOP-92 NSCLC) | TGI (M14 melanoma) | TGI (NCI-H460 lung) | TGI (OVCAR-3 ovarian) | TGI (SW-620 colon) | TGI (TK-10 renal)

CNc1nnnn1C1OC(CO)C(O)C1O (centres undefined)
> 100 µM: TGI (HCT-116 colon) | TGI (M14 melanoma) | TGI (NCI-H460 lung) | TGI (OVCAR-3 ovarian) | TGI (SW-620 colon) | TGI (TK-10 renal)

COc1ccc(C(=O)/C(=N/Nc2ccccc2)c2ccc(OC)cc2)cc1
> 100 µM: TGI (HCT-116 colon) | TGI (NCI-H460 lung) | TGI (SW-620 colon) | TGI (TK-10 renal)

COc1ccc(CN2C(=O)C(Cc3cc(OC)c(OC)c(C)c3OC)N(C(=O)OC(C)C)C(=O)/C2=C/c2cc(OC)c(OC)c(C)c2OC)cc1 (centres undefined)
> 100 µM: TGI (HCT-116 colon) | TGI (HOP-92 NSCLC) | TGI (M14 melanoma) | TGI (NCI-H460 lung) | TGI (OVCAR-3 ovarian) | TGI (SW-620 colon) | TGI (TK-10 renal)

Cn1c(=O)nc2n(-c3ccc(F)cc3)c3ccccc3nc-2c1=O
34 µM: TGI (SW-620 colon)
11 µM: TGI (OVCAR-3 ovarian)
37.9 µM: TGI (HCT-116 colon)
80.7 µM: TGI (NCI-H460 lung)
67.3 µM: TGI (M14 melanoma)
89.1 µM: TGI (TK-10 renal)
